Laboratory results reported in US20130039993A1, “ARGON-BASED INHALABLE GASEOUS MEDICAMENT AGAINST PERIPHERAL ORGAN DEFICIENCIES OR FAILURES” (L'Air Liquide, Societe Anonyme pour l'Etude et …, priority 2010, published 2013).

What was measured:
[1] = test system: kidneys isolated from rats; experiment: Renal function of grafted rat kidneys preserved 6 hours in a gaseous atmosphere (creatinine clearance, 24-hour albuminuria); type: in vivo, Wistar rats; conditions: days D7 and D14 after graft, kidney preserved 6 hours in 100% by volume gas; for creatinine clearance of the grafted kidneys: estimated, related back to 100 g of weight, FIG. 1
Description: (§1) To do this, kidneys isolated from rats intended for a transplantation were used.
(§2) 120 Wistar rats, weighing between 200 g and 250 g, were used while adhering to the Guide for the Care and Use of Laboratory Animals published by the National Institutes of Health.
(§3) The animals were operated upon under general anesthesia and the left kidneys were removed and then preserved in several gaseous atmospheres, namely: • Group A (according to the invention): argon (100% by volume) • Group B (comparative): xenon (100% by volume) • Group C (1st control): air (i.e. essentially N2/O2 mixture) • Group D (2nd control): nitrogen
(§4) The kidneys of a rat are preserved therein for 6 hours before being grafted onto another anesthetized rat according to the conditions previously described. The rats are kept under observation for 14 days.
(§5) In order to carry out an evaluation of the effectiveness of the protection produced by the various gases tested, the renal function and renal morphology of the grafted kidneys were examined.
The renal function was evaluated by calculating the creatinine clearance estimated and related back to 100 g of weight, and by measuring the 24-hour albuminuria.

[2] = test system: kidneys isolated from rats; experiment: Renal morphology of grafted rat kidneys preserved 6 hours in a gaseous atmosphere (standard histology, histochemistry with anti-active caspase-3 and anti-CD10 antibodies); type: in vivo, Wistar rats; conditions: grafted kidneys preserved 6 hours in 100% by volume gas; for kidneys showing cell lysis with subconfluent coagulation necrosis (standard histology): share of kidneys of the group
Description: as §1, §2, §3, §4, §5
The renal morphology was evaluated by standard histology and histochemistry using anti-active caspase-3 and anti-CD10 antibodies.

Compound	albuminuria ([1]; 24-hour albuminuria, FIG. 2)	creatinine clearance of the grafted kidneys [1]	CD10 labeling (histochemistry; preservation of the tubule functional structure) ([2]; anti-CD10 antibody)	caspase-3 labeling (histochemistry; cell degeneration) ([2]; anti-active caspase-3 antibody)	kidneys showing cell lysis with subconfluent coagulation necrosis (standard histology) [2]
[Ar] [argon]	half as much in group A than in the other groups	preserved a good creatinine clearance	very well preserved	discrete and in foci	no kidney of group A under an argon atmosphere exhibited any sign of cell lysis or necrosis
[Xe] [xenon, reference compound]		slightly better with xenon, but significantly lower compared with argon			⅓
